Data as given in paper PMC6366710, “The structural basis of unique substrate recognition by Plasmodium thymidylate kinase: Molecular dynamics simulation and inhibitory studies” (PLoS ONE, 2019).
pKi: −log10 of the molar value.

Target: T1, PfTMK (Plasmodium falciparum thymidylate kinase) (Plasmodium falciparum, UniProt Q8I4S1)
T1 construct: gene TMK; natural dimer
T1 sequence (Q8I4S1 1-210): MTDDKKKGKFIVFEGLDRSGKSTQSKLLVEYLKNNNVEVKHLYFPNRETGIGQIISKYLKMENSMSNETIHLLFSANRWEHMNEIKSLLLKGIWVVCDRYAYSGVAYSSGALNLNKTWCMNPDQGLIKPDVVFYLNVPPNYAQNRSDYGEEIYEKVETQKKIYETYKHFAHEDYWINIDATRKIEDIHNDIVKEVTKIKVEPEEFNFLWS
Assay: NADH-coupled (pyruvate kinase/lactate dehydrogenase) spectrophotometric TMP kinase assay, initial rates
Format: biochemical
Text: NADH-coupled (pyruvate kinase/lactate dehydrogenase) spectrophotometric TMP kinase assay, initial rates on PfTMK (Plasmodium falciparum thymidylate kinase)

SMILES | pKi
Nc1nc2c(ncn2[C@@H]2O[C@H](COP(=O)(O)OP(=O)(O)O[C@H]3O[C@H](CO)[C@@H](O)[C@H](O)[C@@H]3O)[C@@H](O)[C@H]2O)c(=O)[nH]1 [Guanosine diphosphate mannose] | < 3.00
Nc1ncn([C@H]2C[C@H](OP(=O)(O)OC[C@H]3O[C@@H](n4cnc5c(=O)[nH]c(N)nc54)C[C@@H]3O)[C@@H](CO)O2)c(=O)n1 [Guadecitabine] | 4.05
Nc1nc2c(nc(O)n2[C@H]2C[C@H](O)[C@@H](CO)O2)c(=O)[nH]1 [8-Hydroxy-2'-deoxyguanosine] | 3.74
Nc1nc2c(ncn2[C@H]2C[C@H](O)[C@@H](CO)O2)c(=O)[nH]1 [deoxyguanosine] | 3.57
